Data on five molecules can be found in US5811271A, “Process for producing L-ketohexose” (Kabushiki Kaisha Hayashibara Seibutsu Kagaku Kenkyujo, priority 1994, dated 1998).

In the assay the target is T1, D-ketohexose 3-epimerase (Pseudomonas cichorii, UniProt O50580).
T1 construct: The cells which had been recovered from 80 liters of the resultant culture were crushed by grinding; made in house; host or cells: Pseudomonas cichorii ST-24 (FERM BP-2736), the natural producer; not recombinant
As to the kind of experiment: Relative enzyme activity of purified D-ketohexose 3-epimerase on L-ketohexose substrates. Type of assay: biochemical, Pseudomonas cichorii ST-24. Particulars: substrate in 0.1 M solution (pH 7.5), 11 units/g substrate of enzyme, 30° C., 24 hours; D-tagatose as control regarded as 100. Here is the method: D-Ketohexose 3-epimerase was studied for relative enzyme activity on various L-ketohexoses. A purified D-ketohexose 3-epimerase obtained by the method in Example 1 was allowed to act on four different types of L-ketohexoses as substrates, i.e. L-psicose, L-fructose, L-sorbose and L-tagatose, to determine the enzyme activity on them. The reaction conditions were as follows: To either substrate in 0.1 M solution (pH 7.5) was added 11 units/g substrate of the enzyme and reacted at 30° C. for 24 hours. As a control, D-tagatose was used as substrate and the relative enzyme activity was regarded as 100.
The enzyme specimen thus obtained was assayed as follows: The reaction solution used in this assay consisted of 100 microliters of 50 mM Tris-HCl buffer (pH 7.5), 50 microliters 40 mM D-tagatose and 50 microliters of an enzyme solution. The enzymatic reaction was carried out at 30° C. for 60 minutes, and the formed D-sorbose was quantified on HPLC. One unit activity of the enzyme was defined as the amount of enzyme that epimerizes one micromol of D-tagatose into D-sorbose per minute.
`O=C(CO)[C@@H](O)[C@@H](O)[C@H](O)CO` [D-Tagatose, reference compound] registered a Relative enzyme activity of 100.
Then `O=C(CO)[C@H](O)[C@@H](O)[C@@H](O)CO` [L-Fructose], with “about 5”.
Then `O=C(CO)[C@@H](O)[C@@H](O)[C@@H](O)CO` [L-Psicose], with “about 20”; and `O=C(CO)[C@@H](O)[C@H](O)[C@@H](O)CO` [L-Sorbose], with “about 2”.
The value for `O=C(CO)[C@H](O)[C@H](O)[C@@H](O)CO` [L-Tagatose] was “about 0.5”.
